# Experiments:
# [1] = test system: nucleoside monophosphates (AMP, UMP, CMP, GMP); assay: In vitro incubations of NMPs and SFY (MS detection of adducts); format: biochemical; details: 50 mM SFY, 50 mM NMP, 37° C., 16 hours
# Procedure: In addition, to check if SFY could cross-link all four nucleotides, we incubated 50 mM SFY with 50 mM different nucleoside monophosphates (NMPs: AMP, UMP, CMP, or GMP) at 37° C. for 16 hours.
# In vitro incubations of NMPs and SFY. 50 mM SFY (HCl salt) and 50 mM NMP was incubated in DI H2O. 50 mM NaOH was added to neutralize the HCl salt. The mixture was incubated at 37° C. for […]. Then the reaction mixture was diluted for 50 times in H2O/acetonitrile (50/50, v/v, with 0.1% trifluoracetic acid) and subjected to mass spectrum analysis using positive mode. Mass spectrum analysis was performed on SCIEX MDS, 3200 Q TRAP system.
# The molecular weight (MW) of addict products between SFY and NMP was calculated following this equation: MW (adduct product)=MW (SFY)+MW (NMP)−MW (HF).
# m^6A modified RNA = assay: GRIP-seq (high-throughput sequencing); format: cell-based, human
# From the text: To detect endogenous m^6A sites in mammalian cells throughout the transcriptome, we developed GRIP-seq through combining GRIP for m^6A with high-throughput sequencing, enabling global identification of m^6A sites in vivo with single-nucleotide resolution (FIG. 12A). In brief. HEK293T cells expressing YTH-397SFY protein (FIG. 19A) were lysed and treated with RNase to partially digest RNA into short fragments. After GRIP for these cell lysates (FIG. 19A), the purified protein-RNA cross-links were treated with proteinase K to release the cross-linked RNA fragments, which were converted into a cDNA library through adapting the enhanced CLIP protocol and then subjected to high-throughput sequencing. All m^6A sites cross-linked by YTH-397SFY protein in vivo would be captured and identified by reverse transcription termination at the upstream cross-linked nucleotides. Van Nostrand et al. Nat. Methods 13:508-514 (2016)
# We generated four pairs of GRIP-seq libraries. For each pair, we generated one library for the INPUT sample, which represents the RNA fragments from the whole cell lysate, and one library for the IP sample, which represents the RNA fragments cross-linked with the purified YTH proteins. […] For each library, around 10 to 35 million reads were obtained (data not shown). After removing adaptors, we first mapped the reads to the transcriptome. […]
smiles,measurement,setting,value
"COc1ccc(C[C@H](N)C(=O)O)cc1S(=O)(=O)F [SFY, (S)-1-carboxy-2-(3-(fluorosulfonyl)-4-methoxyphenyl)ethan-1-aminium]",cross-linking adducts with NMPs,[1],adducts of SFY with all four NMPs were detected
same,RNA nucleotides cross-linked in vivo,m^6A modified RNA,all four RNA nucleotides
